The record followed here is ChEMBL document CHEMBL3120061, “Novel spiroketal pyrrolidine GSK2336805 potently inhibits key hepatitis C virus genotype 1b mutants: from lead to clinical compound” (J Med Chem, 2014).

Series [1] is described as follows: In vivo clearance in beagle dog relative to hepatic blood flow. The series is classed as ADME, organism-based, Canis lupus familiaris, Liver. The conditions noted are these: read-out: CLH.
The next series addresses T1, Cytochrome P450 1A2 (Homo sapiens, UniProt P05177).
T1 sequence (P05177 whole entry): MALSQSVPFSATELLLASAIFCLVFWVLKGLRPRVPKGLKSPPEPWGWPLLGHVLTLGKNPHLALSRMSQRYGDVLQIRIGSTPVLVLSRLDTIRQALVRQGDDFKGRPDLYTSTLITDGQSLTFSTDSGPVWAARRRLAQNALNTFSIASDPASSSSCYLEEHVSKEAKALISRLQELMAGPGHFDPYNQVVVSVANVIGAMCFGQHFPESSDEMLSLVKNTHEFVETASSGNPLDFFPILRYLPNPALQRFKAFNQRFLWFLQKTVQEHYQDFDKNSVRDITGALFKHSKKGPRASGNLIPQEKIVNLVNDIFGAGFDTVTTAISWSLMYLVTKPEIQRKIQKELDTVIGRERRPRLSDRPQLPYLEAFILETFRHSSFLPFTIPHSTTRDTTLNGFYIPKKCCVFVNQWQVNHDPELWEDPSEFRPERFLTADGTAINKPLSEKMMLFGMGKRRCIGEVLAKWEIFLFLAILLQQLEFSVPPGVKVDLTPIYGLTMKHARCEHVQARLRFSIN
Kind of series: Inhibition of CYP1A2 (unknown origin). The series is classed as ADME.

In series [2] the test system is Hepatitis C virus. Kind of series: Antiviral activity against Hepatitis C virus genotype 1b in Huh-luc/neo-ET replicon cells assessed as log10 reduction of HCV RNA at 3 to 10 times EC90 after 5 days by RNA reduction assay. In kind it is functional, Hepacivirus hominis. For orientation: Replicon systems follow genome replication, usually without infectious particles.

A short description of series [3]: Oral bioavailability in cynomolgus monkey. In kind it is ADME, organism-based, Macaca fascicularis. The conditions noted are these: in vivo.
The test system of series [4] is Hepatitis C virus. Kind of series: Antiviral activity against Hepatitis C virus genotype 1b harboring NS5A L28V mutant gene in Huh-luc/neo-ET replicon cells after 48 hrs by transient replicon mutant-based luciferase assay. The series is classed as functional, organism-based, Hepacivirus hominis.
For series [5], the system named is Hepatitis C virus. Kind of series: Antiviral activity against Hepatitis C virus genotype 1a in Huh-luc/neo-ET replicon cells after 48 hrs by replicon-based luciferase assay. In kind it is functional, organism-based, Hepacivirus hominis. The conditions noted are these: subtype 1a.
Series [6] has as its system Hepatitis C virus. Kind of series: Antiviral activity against Hepatitis C virus genotype 1b in Huh-luc/neo-ET replicon cells after 48 hrs by replicon-based luciferase assay. The series is classed as functional, organism-based, Hepacivirus hominis.
The target of a further series is Cytochrome P450 2D6 (Homo sapiens, UniProt P10635). Kind of series: Inhibition of CYP2D6 (unknown origin). The series is classed as ADME.
A short description of series [7]: Cytotoxicity against human HuhET cells infected with Hepatitis C virus up to 40 uM after 48 hrs by WST assay. In kind it is cell-based.
A further series addresses Cytochrome P450 2C19 (Homo sapiens, UniProt P33261). Kind of series: Inhibition of CYP2C19 (unknown origin). The series is classed as ADME.
Another series has as its target Cytochrome P450 2C9 (Homo sapiens, UniProt P11712). Kind of series: Inhibition of CYP2C9 (unknown origin). The series is classed as ADME.
Series [8] can be described thus: Binding affinity to human alpha1 AGP. The series is classed as ADME. The conditions noted are these: isolated protein.
In another series the target is Cytochrome P450 3A4 (Homo sapiens, UniProt P08684). Kind of series: Inhibition of CYP3A4 (unknown origin). The series is classed as ADME.
The nature of series [9]: Half life in dog hepatocytes. In kind it is ADME, cell-based, Canis lupus familiaris, Hepatocyte.
Series [10] is described as follows: Oral bioavailability in CD rat. In kind it is ADME, organism-based. The conditions noted are these: in vivo.
The test system of series [11] is Hepatitis C virus. Kind of series: Antiviral activity against Hepatitis C virus genotype 1b harboring NS5A L31V mutant gene in Huh-luc/neo-ET replicon cells after 48 hrs by transient replicon mutant-based luciferase assay. In kind it is functional, organism-based, Hepacivirus hominis.
Series [12] concerns Hepatitis C virus. Kind of series: Antiviral activity against Hepatitis C virus genotype 1 infected in patient assessed as decrease in log10 HCV RNA copies/ml at 120 mg administered as single dose. In kind it is functional, Hepacivirus hominis.
Series [13] can be described thus: Half life in rat hepatocytes. The series is classed as ADME, cell-based, Hepatocyte.
Series [14] deals with Hepatitis C virus. Kind of series: Ratio of EC50 for Hepatitis C virus genotype 1b harboring NS5A Y93H mutant gene to EC50 for Hepatitis C virus genotype 1b harboring wild type NS5A in Huh-luc/neo-ET replicon cells by replicon-based luciferase assay. In kind it is functional, Hepacivirus hominis.
A short description of series [15]: In vivo clearance in cynomolgus monkey relative to hepatic blood flow. The series is classed as ADME, organism-based, Macaca fascicularis, Liver. The conditions noted are these: read-out: CLH.
Series [16] relates to Hepatitis C virus. Kind of series: Antiviral activity against Hepatitis C virus genotype 1b in Huh-luc/neo-ET replicon cells assessed as log10 reduction of HCV RNA at 3 times EC90 after 20 days by RNA reduction assay. The series is classed as functional, Hepacivirus hominis.
Series [17] concerns Hepatitis C virus. Kind of series: Antiviral activity against Hepatitis C virus genotype 1b harboring NS5A Y93H mutant gene in Huh-luc/neo-ET replicon cells after 48 hrs by transient replicon mutant-based luciferase assay. In kind it is functional, organism-based, Hepacivirus hominis.
Series [18] is described as follows: In vivo clearance in CD rat relative to hepatic blood flow. In kind it is ADME, organism-based, Liver. The conditions noted are these: read-out: CLH.
In series [19] the test system is Hepatitis C virus. Kind of series: Antiviral activity against Hepatitis C virus genotype 1b in Huh-luc/neo-ET replicon cells assessed as log10 reduction of HCV RNA at 10 times EC90 after 20 days by RNA reduction assay. The series is classed as functional, Hepacivirus hominis.
Series [20] is described as follows: Oral bioavailability in beagle dog. The series is classed as ADME, organism-based, Canis lupus familiaris. The conditions noted are these: in vivo.
A short description of series [21]: Half life in cynomolgus monkey hepatocytes. In kind it is ADME, cell-based, Macaca fascicularis, Hepatocyte.
Series [22] relates to Hepatitis C virus. Kind of series: Antiviral activity against Hepatitis C virus genotype 1 infected in patient assessed as decrease in log10 HCV RNA copies/ml at 1 mg administered as single dose. In kind it is functional, Hepacivirus hominis.
For the next series, the target named is Albumin (Homo sapiens, UniProt P02768). Kind of series: Binding affinity to human serum albumin. In kind it is ADME. The conditions noted are these: isolated protein.
Series [23] has as its system Hepatitis C virus. Kind of series: Ratio of EC50 for Hepatitis C virus genotype 1b harboring NS5A L31V mutant gene to EC50 for Hepatitis C virus genotype 1b harboring wild type NS5A in Huh-luc/neo-ET replicon cells by replicon-based luciferase assay. In kind it is functional, Hepacivirus hominis.
A short description of series [24]: Half life in human hepatocytes. In kind it is ADME, cell-based, Hepatocyte.

Usually IC50 stands for the concentration that gives 50% inhibition. A word on the bioavailability: it is the share of a dose that reaches the circulation, judged against a reference dose that is usually intravenous. As a reminder, the EC50 is the midpoint of the concentration-response curve. A word on the half-life: it is how long it takes for the measured level to halve.

Chain of Cytochrome P450 3A4 (P08684 whole entry): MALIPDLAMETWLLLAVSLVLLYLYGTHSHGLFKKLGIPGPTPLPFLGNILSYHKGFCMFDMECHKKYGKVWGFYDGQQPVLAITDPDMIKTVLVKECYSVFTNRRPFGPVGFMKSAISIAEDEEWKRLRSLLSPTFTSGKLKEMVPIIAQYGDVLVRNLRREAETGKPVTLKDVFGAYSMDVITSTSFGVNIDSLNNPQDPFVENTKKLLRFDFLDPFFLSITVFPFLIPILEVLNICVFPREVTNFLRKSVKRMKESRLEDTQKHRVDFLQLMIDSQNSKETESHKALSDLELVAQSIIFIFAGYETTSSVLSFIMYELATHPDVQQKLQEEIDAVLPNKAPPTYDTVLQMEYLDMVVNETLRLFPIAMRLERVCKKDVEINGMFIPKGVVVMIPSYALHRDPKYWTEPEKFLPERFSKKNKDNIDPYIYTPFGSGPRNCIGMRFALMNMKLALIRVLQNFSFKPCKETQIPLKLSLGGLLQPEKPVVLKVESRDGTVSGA
Chain of Cytochrome P450 2C19 (P33261 whole entry): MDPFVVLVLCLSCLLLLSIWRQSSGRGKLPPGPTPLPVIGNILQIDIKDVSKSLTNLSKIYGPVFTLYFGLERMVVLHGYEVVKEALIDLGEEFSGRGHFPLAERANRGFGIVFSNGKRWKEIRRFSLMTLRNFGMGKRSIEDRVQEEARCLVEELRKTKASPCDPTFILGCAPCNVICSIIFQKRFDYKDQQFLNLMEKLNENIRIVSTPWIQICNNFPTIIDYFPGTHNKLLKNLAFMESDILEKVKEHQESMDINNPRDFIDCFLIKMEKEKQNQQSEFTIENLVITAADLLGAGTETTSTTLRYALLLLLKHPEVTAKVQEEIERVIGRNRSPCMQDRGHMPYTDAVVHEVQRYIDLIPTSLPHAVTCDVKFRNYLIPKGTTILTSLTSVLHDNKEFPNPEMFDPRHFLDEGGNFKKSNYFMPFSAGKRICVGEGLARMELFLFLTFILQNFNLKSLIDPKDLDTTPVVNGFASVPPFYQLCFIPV
Chain of Albumin (P02768 whole entry): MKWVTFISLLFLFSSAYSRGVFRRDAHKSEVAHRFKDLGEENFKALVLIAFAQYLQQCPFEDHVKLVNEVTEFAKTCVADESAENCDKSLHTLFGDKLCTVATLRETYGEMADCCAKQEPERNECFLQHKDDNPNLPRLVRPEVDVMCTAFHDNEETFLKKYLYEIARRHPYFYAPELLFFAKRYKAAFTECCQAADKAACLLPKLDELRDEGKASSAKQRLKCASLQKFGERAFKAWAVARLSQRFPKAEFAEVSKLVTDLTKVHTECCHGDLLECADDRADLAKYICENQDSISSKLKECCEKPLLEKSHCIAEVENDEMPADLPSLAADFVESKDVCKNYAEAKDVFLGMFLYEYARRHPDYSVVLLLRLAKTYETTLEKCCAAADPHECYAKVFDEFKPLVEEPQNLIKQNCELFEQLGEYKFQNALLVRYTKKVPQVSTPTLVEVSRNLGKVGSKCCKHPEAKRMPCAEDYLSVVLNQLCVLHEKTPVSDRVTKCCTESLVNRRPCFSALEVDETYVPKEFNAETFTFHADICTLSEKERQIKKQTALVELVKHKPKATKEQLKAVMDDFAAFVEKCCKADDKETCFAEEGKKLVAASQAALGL
Chain of Cytochrome P450 2D6 (P10635 whole entry): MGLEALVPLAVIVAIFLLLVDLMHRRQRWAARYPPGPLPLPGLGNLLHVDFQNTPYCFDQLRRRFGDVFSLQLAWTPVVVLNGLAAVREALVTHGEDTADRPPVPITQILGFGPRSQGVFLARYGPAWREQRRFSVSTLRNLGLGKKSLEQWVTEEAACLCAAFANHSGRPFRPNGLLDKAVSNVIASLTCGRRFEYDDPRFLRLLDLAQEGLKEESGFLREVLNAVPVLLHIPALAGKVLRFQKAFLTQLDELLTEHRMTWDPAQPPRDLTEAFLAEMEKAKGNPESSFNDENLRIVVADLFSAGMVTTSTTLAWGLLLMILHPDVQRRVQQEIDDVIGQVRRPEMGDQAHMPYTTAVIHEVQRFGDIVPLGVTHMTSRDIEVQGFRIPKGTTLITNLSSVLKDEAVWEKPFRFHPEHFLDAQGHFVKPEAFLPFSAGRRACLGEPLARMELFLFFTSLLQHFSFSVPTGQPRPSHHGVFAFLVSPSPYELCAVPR
Chain of Cytochrome P450 2C9 (P11712 whole entry): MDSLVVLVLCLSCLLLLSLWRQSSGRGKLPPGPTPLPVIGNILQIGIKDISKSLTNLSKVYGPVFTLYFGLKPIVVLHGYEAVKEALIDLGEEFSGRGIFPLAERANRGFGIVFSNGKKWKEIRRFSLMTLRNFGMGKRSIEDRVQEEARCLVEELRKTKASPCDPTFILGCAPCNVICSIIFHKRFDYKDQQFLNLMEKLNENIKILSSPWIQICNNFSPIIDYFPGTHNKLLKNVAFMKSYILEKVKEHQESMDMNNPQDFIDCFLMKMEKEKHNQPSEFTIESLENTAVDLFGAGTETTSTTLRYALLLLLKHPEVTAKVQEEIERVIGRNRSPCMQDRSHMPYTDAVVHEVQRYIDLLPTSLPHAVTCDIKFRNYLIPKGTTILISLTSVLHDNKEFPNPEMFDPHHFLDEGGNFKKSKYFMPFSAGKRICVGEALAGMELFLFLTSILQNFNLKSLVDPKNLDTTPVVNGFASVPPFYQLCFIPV

As for `COC(=O)N[C@H](C(=O)N1CCC[C@H]1c1ncc(-c2ccc(-c3ccc(-c4cnc([C@@H]5CC6(CN5C(=O)[C@@H](NC(=O)OC)C(C)C)OCCO6)[nH]4)cc3)cc2)[nH]1)C(C)C`, the clearance in series [1] stood at 8 mL/min/kg; in series [15], 9 mL/min/kg; in series [18], 60 mL/min/kg. In addition, the 50% inhibitory concentration (IC50) against Cytochrome P450 1A2, against Cytochrome P450 2D6, against Cytochrome P450 2C19, on Cytochrome P450 2C9 and at Cytochrome P450 3A4 was greater than 33 µM throughout. The FC in the series with Hepatitis C virus [2] turned out to be 2; in the series on Hepatitis C virus [12] it was 2.95; in the series with Hepatitis C virus [16] it was 3; with Hepatitis C virus [19], 4; with Hepatitis C virus [22], 0.996. Moreover, the bioavailability in series [3] came out at 13%; in series [10], 13%; in series [20], 51%. The concentration giving a half-maximal response (EC50) with Hepatitis C virus [4] is 3.16 pM; in the series with Hepatitis C virus [5] it was 0.0398 nM; with Hepatitis C virus [6], 0.00794 nM; in the series with Hepatitis C virus [11], 0.0251 nM; in the series on Hepatitis C virus [17] it was 0.0251 nM. Further, the Activity result in series [7] was “Non-toxic”; in series [8], 86%; at Albumin it was 94%. Also, the half-life in series [9] was no less than 360 min; in series [13], 160 min; in series [21], no less than 360 min; in series [24], no less than 360 min. Besides, the results for the “Ratio EC50” value in the series on Hepatitis C virus [14] and with Hepatitis C virus [23] were 3.2 and “<=5”, respectively.
As to `COC(=O)N[C@H](C(=O)N1CC2(CCOCC2)C[C@H]1c1ncc(-c2ccc(-c3ccc(-c4cnc([C@@H]5CC6(CCOCC6)CN5C(=O)[C@@H](NC(=O)OC)C(C)C)[nH]4)cc3)cc2)[nH]1)C(C)C`, the EC50 is 6.31 pM with Hepatitis C virus [4]; 0.02 nM with Hepatitis C virus [5]; 0.0126 nM in the series on Hepatitis C virus [6]; 0.02 nM with Hepatitis C virus [11]; 0.126 nM in the series on Hepatitis C virus [17]. For the same compound, the “Ratio EC50” value is recorded as “>=30” in the series on Hepatitis C virus [14] and “<=5” in the series with Hepatitis C virus [23].
As for `COC(=O)N[C@H](C(=O)N1CC2(C[C@H]1c1ncc(-c3ccc(-c4ccc(-c5cnc([C@@H]6CC7(CN6C(=O)[C@@H](NC(=O)OC)C(C)C)OCCO7)[nH]5)cc4)cc3)[nH]1)OCCO2)C(C)C`, the half-maximal effective concentration (EC50) in the series with Hepatitis C virus [4] was 12.6 pM; in the series with Hepatitis C virus [5], 0.0501 nM; with Hepatitis C virus [6], 0.01 nM; in the series on Hepatitis C virus [11], 0.0251 nM; in the series with Hepatitis C virus [17] it was 0.0126 nM. Further, the bioavailability in series [10] was found to be 9%. In series [18], the clearance is 58 mL/min/kg. The “Ratio EC50” value in the series with Hepatitis C virus [23] is recorded as “<=5”.
In the case of `COC(=O)N[C@H](C(=O)N1CCC[C@H]1c1ncc(-c2ccc(-c3ccc(-c4cnc([C@@H]5CC6(CCC(F)(F)CC6)CN5C(=O)[C@@H](NC(=O)OC)C(C)C)[nH]4)cc3)cc2)[nH]1)C(C)C`, the half-maximal effective concentration (EC50) in the series with Hepatitis C virus [4] is 1.58 pM; in the series with Hepatitis C virus [5], 0.0398 nM; with Hepatitis C virus [6], 0.00251 nM; in the series on Hepatitis C virus [11], 0.2 nM; in the series with Hepatitis C virus [17], 1 nM. Moreover, the entries for the “Ratio EC50” value in the series on Hepatitis C virus [14] and with Hepatitis C virus [23] were “>=30” and “>=25”, respectively.
As to `COC(=O)N[C@H](C(=O)N1CCC[C@H]1c1ncc(-c2ccc(-c3ccc(-c4cnc([C@@H]5CCCN5C(=O)[C@@H](NC(=O)OC)C(C)C)[nH]4)cc3)cc2)[nH]1)C(C)C` [DACLATASVIR], the FC came to 2 with Hepatitis C virus [2], 2 in the series with Hepatitis C virus [16] and 3 in the series on Hepatitis C virus [19]. Also, the EC50 in the series with Hepatitis C virus [4] was 3.98 pM; with Hepatitis C virus [5], 0.0398 nM; in the series on Hepatitis C virus [6], 0.01 nM; in the series with Hepatitis C virus [11] it was 0.126 nM; with Hepatitis C virus [17], 0.316 nM. In addition, the entries for the “Ratio EC50” value with Hepatitis C virus [14] and in the series with Hepatitis C virus [23] were “>=30” and “>=25”, respectively.
